Measured values from patent US20220104481A1, “CRYOPRESERVATION OF STEM CELLS” (TiGenix, S.A.U., priority 2019, published 2022).

What follows are molecules tested on ASCs (assay: MTS assay after post-thaw seeding of ASCs pretreated with compounds prior to freezing). Settings: 24 hours pretreatment before freezing (LY294 10 μM, sc79 10 μM, Exendin-4 20 nM).
Assay type: cell-based, human
Procedure: ASCs from donor A were thawed by warming the vials in a 37° C. bath and diluting the freezing medium containing DMSO with fresh complete DMEM (DMEM/F-12 media—GlutaMAX™-I, Gibco, supplemented with 100 μg/mL penicillin/streptomycin and 10% FBS). Cells were centrifuged at 450 g for 6 minutes at room temperature to eliminate leftover DMSO and plated in T-175 flasks at 20.000 cells/cm^2 in complete DMEM.
A 600 mM stock of NAC (SIGMA) was prepared in Milli-Q water (Millipore). This stock was used for pre-treatment and post-treatment by adding directly 50 μL stock solution per well into 5 mL of medium, making a final concentration of 6 mM. For 2 mM, only 16.7 μL were added per well, and in the case of 12 mM, 100 μL of stock were added. DMSO was used as the vehicle for sc79 and LY294.
Following the pretreatment step, the medium was removed, the cells were washed with PBS and trypsinized using trypsin-EDTA 0.25% (ThermoFisher) for 8 minutes at 37° C. After trypsin inactivation with complete DMEM, cells were harvested and centrifuged prior to resuspension in freezing medium (FBS with 10% DMSO), and frozen into 500,000 or 1 million cells per vial and stored in liquid nitrogen for further use. Specifically, the cells were frozen at −80° C. for 24 hours in a Cool Cell® device (BioCision) and then transferred to a liquid nitrogen storage container. All experiments were performed in incubators and 37° C., 5% CO2.
[…] The CellTiter 96° Aqueous One Solution Cell Proliferation Assay is a colorimetric method for determining the number of viable cells. The CellTiter 96° Aqueous One Solution reagent contains a tetrazolium compound [3-(4,5-dimethylthiazol-2-yl)-5-(3-carboxymethoxyphenyl)-2-(4-sulfophenyl)-2H-tetrazolium, MTS] and an electron coupling reagent (phenazine ethosulfate; PES). The MTS tetrazolium compound is bioreduced by cells—presumably by NADPH or NADH produced by dehydrogenase enzymes in metabolically active cells—into a coloured formazan product that is soluble in tissue culture medium.
Briefly, 40 μL of the reagent was added to 200 μL of complete DMEM in each well and absorbance was measured after 2-3 hours at 490 nm using a […]. Each condition was measured in 6 technical repeats. The MTS assay results are presented as percentage of absorbance at 490 nm relative to the non-treated (NT) cells.

Molecule	effect of pre-treatment on post-thaw cell number
O=c1cc(N2CCOCC2)oc2c(-c3ccccc3)cccc12 [LY294]	did not show reproducible effects on cell number
CCOC(=O)C1=C(N)Oc2ccc(Cl)cc2C1C(C#N)C(=O)OCC (stereo not shown) [sc79]	did not show reproducible effects on cell number
Exendin-4	did not show reproducible effects on cell number
IL6: pre-treatment assessed in addition to NAC; no concentration given	did not show reproducible effects on cell number
